Values quoted from earlier work in patent publication US20120065267A1, “COMPOSITIONS INCLUDING 3,5-L-T2 AND METHODS OF USE THEREOF” (priority 2010, published 2012).
Read-outs that look alike come from different tables or passages of the source.

Tests used:
[1] = test system: hypercholesterolemic patients; conditions: cited from earlier work
TR α1, β1 and β2 = conditions: in vitro; cited from earlier work

Structure (SMILES) | patients with coronary artery disease experiencing increased anginal symptoms ([1]; 300 mg daily for 8 months) | patients with coronary artery disease who died suddenly from presumed myocardial infarction ([1]; 300 mg daily for 8 months) | decrease in total serum cholesterol ([1]; 300 mg daily, at 20 weeks) [%] | mean heart rate on treatment ([1]; 300 mg daily, increase from 76) [beats per minute] | efficacy at lower doses ([1]; doses of less than 250 mg/day) | decrease in body weight ([1]; euthyroid subjects, 300 mg daily for 8 months) [%] | decrease in body weight ([1]; hypothyroid patients, 300 mg daily for 8 months) [%] | binding affinity relative to that of T2 (TR α1, β1 and β2)
N[C@H](Cc1cc(I)c(Oc2ccc(O)cc2)c(I)c1)C(=O)O [3,5-D-T2] | 7 of 13 | 2 of the 13 | 20 | 88 | ineffective | 5 | 8 | –
N[C@@H](Cc1cc(I)c(Oc2ccc(O)c(I)c2)c(I)c1)C(=O)O [T3, (2S)-2-amino-3-[4-(4-hydroxy-3-iodophenoxy)-3,5-diiodophenyl]propanoic acid] | – | – | – | – | – | – | – | 40-500 fold
